Assay results reported in PubChem BioAssay AID192 (DTP/NCI, 2004).
Several values for one entry are separate records, joined by “and”; a condition that tells them apart may be missing. Equal entries are not always repeated. Toxic doses and inconclusive results are not listed.

System: BDF1 mice, B16 melanoma ip, median survival T/C
Assay: NCI In Vivo Anticancer Drug Screen. Data for tumor model B16 Melanoma (intraperitoneal) in B6D2F1 (BDF1) mice
Settings: endpoint: median survival time, higher = longer survival
How it was run: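 Survival or tumor size is measured after treatment of tumor-bearing mice and normalised to the vehicle-treated control group.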

[1] = dose: 25.0 mg/kg/injection, schedule: Q01DX009 (ip), vehicle: Klucel (hydroxypropylcellulose) (HPC)
[2] = dose: 50.0 mg/kg/injection, schedule: Q01DX009 (ip), vehicle: Klucel (hydroxypropylcellulose) (HPC)
[3] = dose: 100.0 mg/kg/injection, schedule: Q01DX009 (ip), vehicle: Klucel (hydroxypropylcellulose) (HPC)
[4] = dose: 200.0 mg/kg/injection, schedule: Q01DX009 (ip), vehicle: Klucel (hydroxypropylcellulose) (HPC)
[5] = dose: 6.25 mg/kg/injection, schedule: Q01DX009 (ip), vehicle: saline with Tween-80
[6] = dose: 12.5 mg/kg/injection, schedule: Q01DX009 (ip), vehicle: saline with Tween-80
[7] = dose: 25.0 mg/kg/injection, schedule: Q01DX009 (ip), vehicle: saline with Tween-80
[8] = dose: 50.0 mg/kg/injection, schedule: Q01DX009 (ip), vehicle: saline
[9] = dose: 100.0 mg/kg/injection, schedule: Q01DX009 (ip), vehicle: saline
[10] = dose: 3.12 mg/kg/injection, schedule: Q01DX009 (ip), vehicle: Klucel (hydroxypropylcellulose) (HPC)
[11] = dose: 6.25 mg/kg/injection, schedule: Q01DX009 (ip), vehicle: Klucel (hydroxypropylcellulose) (HPC)
[12] = dose: 12.5 mg/kg/injection, schedule: Q01DX009 (ip), vehicle: Klucel (hydroxypropylcellulose) (HPC)
[13] = dose: 100.0 mg/kg/injection, schedule: Q04DX003 (ip), vehicle: Klucel (hydroxypropylcellulose) (HPC)
[14] = dose: 200.0 mg/kg/injection, schedule: Q04DX003 (ip), vehicle: Klucel (hydroxypropylcellulose) (HPC)
[15] = dose: 400.0 mg/kg/injection, schedule: Q04DX003 (ip), vehicle: Klucel (hydroxypropylcellulose) (HPC)

In the case of `CC[C@](C)(O)C(=O)O[C@H]1C(=O)O[C@@H]2C[C@H]3C(C)=CC(=O)[C@@H](O)[C@]3(C)[C@H]3[C@@]4(O)OC[C@]32[C@@H]1[C@@H](C)[C@H]4O`, the T/C (dose: 0.13 mg/kg/injection, schedule: Q01DX009 (ip), vehicle: Klucel (hydroxypropylcellulose) (HPC)) is reported as 110 % of control, the T/C (dose: 0.13 mg/kg/injection, schedule: Q01DX009 (ip), vehicle: steriod suspending solution) is reported as 108 % of control and the T/C (dose: 0.25 mg/kg/injection, schedule: Q01DX009 (ip), vehicle: Klucel (hydroxypropylcellulose) (HPC)) is reported as 107 % of control. The T/C (dose: 0.25 mg/kg/injection, schedule: Q01DX009 (ip), vehicle: saline) was 121 % of control, the T/C (dose: 0.25 mg/kg/injection, schedule: Q01DX009 (ip), vehicle: steriod suspending solution) was 122 % of control and the T/C (dose: 0.5 mg/kg/injection, schedule: Q01DX009 (ip), vehicle: Klucel (hydroxypropylcellulose) (HPC)) was 114 % of control. The T/C (dose: 0.5 mg/kg/injection, schedule: Q01DX009 (ip), vehicle: saline) was 154 % of control, the T/C (dose: 1.0 mg/kg/injection, schedule: Q01DX009 (ip), vehicle: steriod suspending solution) was 114 % of control and the T/C (dose: 125.0 micrograms/kg/injection, schedule: Q01DX009 (ip), vehicle: saline with Tween-80) was 121 % of control. The T/C (dose: 250.0 micrograms/kg/injection, schedule: Q01DX009 (ip), vehicle: saline with Tween-80) was 112 % of control and the T/C (dose: 500.0 micrograms/kg/injection, schedule: Q01DX009 (ip), vehicle: saline with Tween-80) was 121 % of control.

In the case of `CC(C)CCC[C@@H](C)[C@H]1CC[C@H]2[C@@H]3CC=C4C[C@@H](O)CC[C@]4(C)[C@H]3CC[C@]12C`, the T/C (dose: 100.0 mg/kg/injection, schedule: Q01DX009 (ip), vehicle: other) is reported as 98 % of control and the T/C (dose: 200.0 mg/kg/injection, schedule: Q01DX009 (ip), vehicle: other) is reported as 114 % of control.

In the case of `CC(=O)C(=O)NC1/C=C(C)\C=C/C(O)C/C=C(C)\C=C/C(O)CC2OC(=O)C1(C)C(=O)C2C` (stereo not given), the T/C [1] is reported as 100 % of control, the T/C [2] is reported as 118 % of control and the T/C [3] is reported as 117 % of control. The T/C [4] was 112 % of control.

With `S=C([S][Sn]([c]1ccccc1)([c]1ccccc1)[c]1ccccc1)N1CCCCC1` the T/C (dose: 3.12 mg/kg/injection, schedule: Q01DX009 (ip), vehicle: saline with Tween-80) was 100 % of control, the T/C [5] was 107 % of control and the T/C [6] was 103 % of control. For the same molecule, the T/C [7] was 99 % of control.

In the case of `CC(CC=O)CCCC(C)(C)O` (stereo not given), the T/C [3] is reported as 101 % of control and the T/C [4] is reported as 97 % of control.

For `Nc1ncnc2nc[nH]c12`, the T/C (dose: 32.0 mg/kg/injection, schedule: Q01DX009 (ip), vehicle: Klucel (hydroxypropylcellulose) (HPC)) was 97 % of control, the T/C (dose: 64.0 mg/kg/injection, schedule: Q01DX009 (ip), vehicle: Klucel (hydroxypropylcellulose) (HPC)) was 98 % of control and the T/C (dose: 64.0 mg/kg/injection, schedule: Q01DX009 (ip), vehicle: saline with Tween-80) was 98 % of control. The T/C (dose: 128.0 mg/kg/injection, schedule: Q01DX009 (ip), vehicle: Klucel (hydroxypropylcellulose) (HPC)) was 89 % of control.

For `ClCCOCOCCCl`, the T/C (dose: 20.0 mg/kg/injection, schedule: Q04DX003 (ip), vehicle: Klucel (hydroxypropylcellulose) (HPC)) was 101 % of control, the T/C (dose: 40.0 mg/kg/injection, schedule: Q04DX003 (ip), vehicle: Klucel (hydroxypropylcellulose) (HPC)) was 89 % of control and the T/C (dose: 80.0 mg/kg/injection, schedule: Q04DX003 (ip), vehicle: Klucel (hydroxypropylcellulose) (HPC)) was 102 % of control.

In the case of `CCCCCC#CC(=O)O`, the T/C (dose: 75.0 mg/kg/injection, schedule: Q01DX009 (ip), vehicle: Klucel (hydroxypropylcellulose) (HPC)) is reported as 95 % of control and the T/C (dose: 150.0 mg/kg/injection, schedule: Q01DX009 (ip), vehicle: Klucel (hydroxypropylcellulose) (HPC)) is reported as 86 % of control.

For `O=C1Nc2ccc(Cl)cc2C(c2ccccc2)=NC1O` (stereo not given), the T/C (dose: 6.25 mg/kg/injection, schedule: Q01DX009 (ip), vehicle: saline) was 116 % of control, the T/C [8] was 95 % of control and the T/C [9] was 95 % of control. For the same molecule, the T/C (dose: 200.0 mg/kg/injection, schedule: Q01DX009 (ip), vehicle: saline) was 89 % of control and the T/C (dose: 400.0 mg/kg/injection, schedule: Q01DX009 (ip), vehicle: saline) was 89 % of control.

In the case of `NC(=O)N1CCN(CCCN2c3ccccc3Sc3cc(Cl)ccc32)CC1`, the T/C [10] is reported as 92 % of control, the T/C [11] is reported as 98 % of control and the T/C [12] is reported as 101 % of control. The T/C [1] was 106 % of control.

`COC(OC(CO)C(O)S(=O)(=O)O)C(O)S(=O)(=O)O` (stereo not given) was tested, and the T/C (dose: 12.5 mg/kg/injection, schedule: Q01DX009 (ip), vehicle: saline) was 104 % of control, the T/C (dose: 25.0 mg/kg/injection, schedule: Q01DX009 (ip), vehicle: saline) was 107 % of control and the T/C [8] was 111 % of control. The T/C [9] was 119 % of control.

`COC(=O)C(C)CC(C)(C=O)OC` (stereo not given) was tested, and the T/C (dose: 100.0 mg/kg/injection, schedule: Q01DX009 (ip), vehicle: saline with Tween-80) was 97 % of control, the T/C (dose: 200.0 mg/kg/injection, schedule: Q01DX009 (ip), vehicle: saline with Tween-80) was 100 % of control and the T/C (dose: 400.0 mg/kg/injection, schedule: Q01DX009 (ip), vehicle: saline with Tween-80) was 90 % of control.

In the case of `O=C(Nc1ccccc1Cl)Oc1ccc(-c2ccccc2)cc1Br`, the T/C [13] is reported as 100 % of control, the T/C [14] is reported as 103 % of control and the T/C [15] is reported as 93 % of control.

`OCCOCCN1CCN(CCCN2c3ccccc3Sc3ccc(C(F)(F)F)cc32)CC1` was tested, and the T/C (dose: 0.8 mg/kg/injection, schedule: Q01DX009 (ip), vehicle: saline) was 106 % of control, the T/C (dose: 1.6 mg/kg/injection, schedule: Q01DX009 (ip), vehicle: saline) was 102 % of control and the T/C (dose: 3.2 mg/kg/injection, schedule: Q01DX009 (ip), vehicle: saline) was 102 % of control. The T/C (dose: 6.4 mg/kg/injection, schedule: Q01DX009 (ip), vehicle: saline) was 105 % of control, the T/C (dose: 3.1 micrograms/kg/injection, schedule: Q01DX009 (ip), vehicle: saline) was 108 % of control and the T/C (dose: 6.2 micrograms/kg/injection, schedule: Q01DX009 (ip), vehicle: saline) was 111 % of control. The T/C (dose: 12.5 micrograms/kg/injection, schedule: Q01DX009 (ip), vehicle: saline) was 123 % of control, the T/C (dose: 25.0 micrograms/kg/injection, schedule: Q01DX009 (ip), vehicle: saline) was 111 % of control and the T/C (dose: 50.0 micrograms/kg/injection, schedule: Q01DX009 (ip), vehicle: saline) was 109 % of control. For the same molecule, the T/C (dose: 100.0 micrograms/kg/injection, schedule: Q01DX009 (ip), vehicle: saline) was 110 % of control, the T/C (dose: 200.0 micrograms/kg/injection, schedule: Q01DX009 (ip), vehicle: saline) was 110 % of control and the T/C (dose: 400.0 micrograms/kg/injection, schedule: Q01DX009 (ip), vehicle: saline) was 116 % of control.

For `CCC(C)C(C)(COC(N)=O)COC(N)=O` (stereo not given), the T/C [13] was 97 % of control, the T/C [14] was 102 % of control and the T/C [15] was 105 % of control.

For `CNC(=O)ON=C1CCC(CC2CCCCC2)CC1` (stereo not given), the T/C [1] was 93 % of control, the T/C [2] was 100 % of control and the T/C [3] was 103 % of control.

With `OC(CCN1CCCCC1)(c1ccccc1)C1CC2C=CC1C2` (stereo not given) the T/C (dose: 0.19 mg/kg/injection, schedule: Q01DX009 (ip), vehicle: Klucel (hydroxypropylcellulose) (HPC)) was 96 % of control, the T/C (dose: 0.39 mg/kg/injection, schedule: Q01DX009 (ip), vehicle: Klucel (hydroxypropylcellulose) (HPC)) was 100 % of control and the T/C (dose: 0.78 mg/kg/injection, schedule: Q01DX009 (ip), vehicle: Klucel (hydroxypropylcellulose) (HPC)) was 103 % of control. For the same molecule, the T/C (dose: 1.56 mg/kg/injection, schedule: Q01DX009 (ip), vehicle: Klucel (hydroxypropylcellulose) (HPC)) was 100 % of control, the T/C [10] was 115 % of control and the T/C [11] was 94 % of control. For the same molecule, the T/C [12] was 92 % of control and 96 % of control and the T/C [3] was 89 % of control.

`O=C1C2C(C(=O)N1c1ccc(OCc3ccccc3)cc1)C1c3ccccc3C2C2CCCCN21` (stereo not given) was tested, and the T/C (dose: 3.13 mg/kg/injection, schedule: Q01DX009 (ip), vehicle: water) was 103 % of control, the T/C (dose: 6.25 mg/kg/injection, schedule: Q01DX009 (ip), vehicle: water) was 98 % of control and the T/C (dose: 12.5 mg/kg/injection, schedule: Q01DX009 (ip), vehicle: water) was 104 % of control.

For `CCCC1CC[N-]CC1.CCCC1CC[N-]CC1.[Cl][Pt+2][Cl]`, the T/C [5] was 100 % of control, the T/C [6] was 110 % of control and the T/C [7] was 104 % of control.

`COc1ccc(N=C=Nc2ccc(OC)cc2)cc1` was tested, and the T/C [12] was 93 % of control and the T/C [1] was 91 % of control.
